{"source": "patent US20100216120A1", "about": "“Rapid infectious virus assay” (priority 2009, published 2010)", "key": {"[1]": {"test_system": "infectious HIV from monocytes", "assay": "ATP-triggered release of infectious virus from CD8-depleted PBMC monocytes, TZM reporter cell luciferase readout, no fibronectin coating", "type": "cell-based, Human Immunodeficiency Virus (HIV)", "settings": "ATP 1-5 mM, absence of fibronectin coating, 200 k CD8-depleted PBMCs, 3 days; HIV-positive vs negative individuals", "protocol": "ATP (1 mM) was then added in a volume of 100 ul for a 3 hrs at 37° C. TZMs (10K) were then added on to the wells in 100 ul in RPMI 10%. After 3 days later, the supernatants were removed and steady-glo reagent was added on to the TZMs and read on a Spectramax.\nThe inventors tested the ability of ATP (1-5 mM) to release infectious virus from monocytes in absence of fibronectin coating on to the tissue culture wells. […] Further differentiation and/or activation is useful to enhance virus release."}, "[2]": {"test_system": "infectious HIV from monocytes", "assay": "Rapid Infectious Viral Assay (RIVA): virus release from monocytes on fibronectin-coated wells, TZM-bl reporter cell luciferase readout", "type": "cell-based, Human Immunodeficiency Virus (HIV)", "settings": "ATP 1 mM", "protocol": "The plates were then coated with fibronectin and BSA. 150 k CD8-depleted PBMCs were added on to a 96-well for 3 hrs followed by washings using RPMI 10%. ATP (1 mM) was then added in a volume of 100 ul for a 3 hrs at 37° C. TZMs (15K) were then added on to the wells the next day. 5 days later after launch, the supernatants were removed and steady-glo reagent was added on to the TZMs and read on a Spectramax.\nATP (1 mM) was then added in a volume of 100 ul for a 3 hrs at 37° C. TZMs (10K) were then added on to the wells. 4 days later after launch, the supernatants were removed and steady-glo reagent was added on to the TZMs and read on a Spectramax.\nATP (1 mM) was then added in a volume of 100 ul for a 3 hrs at 37° C. TZMs (10K) were then added on to the wells. 3 days later after launch, the supernatants were removed and steady-glo reagent was added on to the TZMs and read on a Spectramax.\nATP (1 mM) was then added in a volume of 100 ul for a 3 hrs at 37° C. TZMs (20K) were then added on to the wells. 3 days later after launch, the supernatants were removed and steady-glo reagent was added on to the TZMs and read on a Spectramax.\nIn a preferred embodiment, CD8-depleted PBMC were isolated from HIV-negative donors and HIV patients with VL<50 copies/ml using Dynal beads. Peripheral monocytes (CD14) were used in a rapid infectious assay using TZM-bl coculture technique. The inventors compare this shorter infection assay to classical method of PBMC activation with anti CD3/CD28 antibodies. Major CCR5 blockers were addressed. Presence of infectious virus was also investigated using FACS and rtPCR.\nFIG. 2 illustrates a test of the ability of ATP (1 mM) to release infectious virus from monocytes in presence of fibronectin coating on to the tissue culture wells. The HIV infectivity was measured by measuring the RLU on a Spectramax M5 plate readert.\n1. A 96 well plate (a 48 well can be used) is coated with 100 ul RPMI containing fibronectin (50 ug/ml) in BSA (0.5%) for 30 minutes at room temperature.\n2. CD8-depleted PBMC's which have been frozen at 2 million cells per ml and stored at −80 C in 22% FBS and 10% DMSO are thawed quickly and about 100 ul containing 200 k cells are added to the wells immediately\n3. Let cells of interest attach for 2 hours (longer even overnight up to 20 hrs can be used)\n4. Remove all the media which contains non-adherent cells and wash with 200 ul of RPMI with 10% FBS, pipetting gently, removing this wash media. The adherent monocytes remain.\n5. […]\n7. Finally quantitate how much viral infection has occurred by reading luciferase production using Steady Glow reagent (Promega) and a luminometer/spectrophotometer. […]"}}}
{"smiles": "Nc1ncnc2c1ncn2[C@@H]1O[C@H](COP(=O)(O)OP(=O)(O)OP(=O)(O)O)[C@@H](O)[C@H]1O", "note": "[ATP]", "values": [{"measurement": "release of infectious virus from monocytes (RLU on TZMs)", "setting": "[1]", "value": "incapable of triggering release of viral particles from monocytes"}, {"measurement": "release of infectious virus from monocytes (RLU on TZMs)", "setting": "[2]; fibronectin and BSA coating, 100 k CD8-depleted PBMCs O/N, 3-day assay (Format #3)", "value": "triggers the release of the virus"}, {"measurement": "release of infectious virus from monocytes (RLU on TZMs)", "setting": "[2]; fibronectin and BSA coating, 100 k CD8-depleted PBMCs O/N, 4-day assay (Format #2)", "value": "triggers the release of the virus"}, {"measurement": "release of infectious virus from monocytes (RLU on TZMs)", "setting": "[2]; fibronectin and BSA coating, 225 k cells, 48-well, 4-day assay (Format #4)", "value": "triggers the release of the virus"}, {"measurement": "release of infectious virus from monocytes (RLU on TZMs)", "setting": "[2]; fibronectin coating, 150 k CD8-depleted PBMCs, 5 day assay (Format #1)", "value": "capable of triggering release of viral particles from monocytes"}]}
